Reference: PMC2922490 (Bioorganic & medicinal chemistry letters, 2010)

Experiments:
[1] = type: in vitro ADME; details: human microsomes, incubation period of 60 min
[2] = type: in vitro ADME; details: rat microsomes, incubation period of 60 min
[3] = type: in vitro ADME; details: rat protein binding
[4] = type: in vitro ADME; details: human protein binding
[5] = target: hmGlu4 (Homo sapiens, UniProt Q14833)
hmGlu4, sequence (Q14833 33-912): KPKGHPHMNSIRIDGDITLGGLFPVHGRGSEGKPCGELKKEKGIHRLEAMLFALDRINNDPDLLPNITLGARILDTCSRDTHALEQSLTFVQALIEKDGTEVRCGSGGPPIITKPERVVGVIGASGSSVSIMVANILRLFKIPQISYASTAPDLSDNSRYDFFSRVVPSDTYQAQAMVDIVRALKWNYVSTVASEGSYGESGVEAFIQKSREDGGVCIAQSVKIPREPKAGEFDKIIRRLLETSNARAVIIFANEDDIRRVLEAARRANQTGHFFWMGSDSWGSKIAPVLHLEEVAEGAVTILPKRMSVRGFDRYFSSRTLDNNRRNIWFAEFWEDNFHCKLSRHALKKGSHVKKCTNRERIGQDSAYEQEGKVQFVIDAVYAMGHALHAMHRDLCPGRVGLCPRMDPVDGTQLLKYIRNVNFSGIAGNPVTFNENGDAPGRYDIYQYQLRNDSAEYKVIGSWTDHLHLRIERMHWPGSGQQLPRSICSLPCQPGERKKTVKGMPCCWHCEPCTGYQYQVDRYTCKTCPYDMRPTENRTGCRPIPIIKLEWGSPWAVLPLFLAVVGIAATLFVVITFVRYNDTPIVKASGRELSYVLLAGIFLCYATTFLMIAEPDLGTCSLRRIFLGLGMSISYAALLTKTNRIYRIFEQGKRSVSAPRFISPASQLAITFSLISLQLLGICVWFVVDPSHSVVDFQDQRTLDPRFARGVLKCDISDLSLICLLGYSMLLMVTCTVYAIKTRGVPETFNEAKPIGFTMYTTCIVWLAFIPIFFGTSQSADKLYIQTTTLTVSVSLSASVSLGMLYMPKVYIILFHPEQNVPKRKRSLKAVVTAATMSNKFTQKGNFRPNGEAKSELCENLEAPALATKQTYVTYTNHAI

Row | Compound | HLM (% remaining) [1] [% remaining] | RLM (% remaining) [2] [% remaining] | PPB (r) (% free) [3] [% free] | PPB (h) (% free) [4] [% free] | loss of potency ([5]; relative to the parent compound (13 vs 11; N-Me vs NH sulfonamides)) [fold] | increase in potency relative to 4 ([5]; 2-furyl amide of 4 changed to 2-pyridyl amide) [fold] | receptor activation in the absence of glutamate ([5]; mGlu4/Gqi5 CHO cells, absence of an EC20 concentration of glutamate)
1 | COc1ccccc1NS(=O)(=O)c1ccc(NC(=O)c2ccccn2)cc1OC [Compound 10] | 1.3 | 0.05 | 12.7 | 0.3 |  |  | 
2 | CN(c1ccccc1Cl)S(=O)(=O)c1ccc(NC(=O)c2ccncn2)cc1 [Compound 9f] | 2.5 | 3.3 | 2.7 | 1.7 |  |  | 
3 | O=C(Nc1ccc(S(=O)(=O)Nc2ccccc2Cl)cc1)c1nccs1 [Compound 9d] | 0.84 | 1.2 | 0.1 | 0.1 |  |  | 
4 | O=C(Nc1ccc(Cl)c(S(=O)(=O)Nc2ccccc2Cl)c1)c1ccccn1 [Compound 13] | 11.9 | 0.05 |  |  | 36 |  | 
5 | O=C(Nc1ccc(S(=O)(=O)Nc2ccccc2Cl)c(Cl)c1)c1ccccn1 [Compound 11] | 0.63 | 0.02 |  |  |  |  | 
6 | CN(c1ccccc1Cl)S(=O)(=O)c1ccc(NC(=O)c2nccs2)cc1 [Compound 9g] | 0.1 | 0.08 | 37 | 0.5 |  |  | 
7 | O=C(Nc1ccc(S(=O)(=O)Nc2ccccc2Cl)cc1)c1ccccn1 [Compound 8b] | 0.02 | 0.02 | 0.3 | 0.1 |  |  | 
8 | Cc1cc(C)c(NS(=O)(=O)c2ccc(NC(=O)c3ccccn3)cc2)c(C)c1 [Compound 5] |  | 25.8 | 0.3 | 0.1 |  | 30 | does not elicit receptor activation
9 | Cc1cc(C)c(NS(=O)(=O)c2ccc(NC(=O)c3ccco3)cc2)c(C)c1 [Compound 4] |  | 93.3 | 8.2 | 2.2 |  |  | 
